The values below come from patent publication US20150004110A1, “NOVEL ANTI-AGING AND DEPIGMENTING COSMETIC COMPOSITIONS” (DIVERCHIM, priority 2011, published 2015).

Molecules are shown by their SMILES.

One assay concerns collagen VII. Put plainly: Staining and immunolabelling of skin explant sections: collagen VII. The format is cell-based, human. As to conditions: treated skin explant sections. The method, then: (§1) 1. Preparation of the explants • During abdominoplasty of a person, 45 skin explants were prepared. The explants were put in BEM medium (BIO-EC's Explants Medium) for survival at 37° C. in humid atmosphere, enriched with 5% CO2.
(§2) 2. Application of the products • The solutions are prepared in DMSO from pure products, in order to obtain final concentrations of […] by incorporating an identical volume of 10 μl in each well and for each treatment. The treatment was carried out in the survival medium on days 0, 1, 2, 5 and 7.
(§3) 3. Taking samples • On D0, the 3 explants of batch TO were taken and each explant was cut in two. One part was fixed in buffered formol for observation of the general morphology. The other was frozen and stored at −80° C. • On D5 and D9, 3 explants from each batch were taken and treated in the same way.
(§4) 4. Histological treatment • After fixation for 48 hours in buffered formol, the samples were dehydrated and embedded in paraffin using a Leica 1020 automatic dehydrator. They were embedded according to procedure MO-H-153 using a Leica EG 1160 coating station. Sections of 5 μm were prepared according to procedure MO-H-173 using a Minot-type microtome, Leica RM 2125 and mounted on Superfrost® histological glass slides.
(§5) 6. Staining and immunolabelling
(§6) Immunolabelling will be carried out on sections with the appropriate antibody. […]

Another assay concerns collagen I. Put plainly: Staining and immunolabelling of skin explant sections: collagen I. In kind it is cell-based, human. As to conditions: treated skin explant sections. The method, then:
as §1, §2, §3, §4, §5, §6

For a further assay, the target named is T1, PPARδ (h) (Homo sapiens, UniProt Q03181).
T1 sequence (Q03181 1-441): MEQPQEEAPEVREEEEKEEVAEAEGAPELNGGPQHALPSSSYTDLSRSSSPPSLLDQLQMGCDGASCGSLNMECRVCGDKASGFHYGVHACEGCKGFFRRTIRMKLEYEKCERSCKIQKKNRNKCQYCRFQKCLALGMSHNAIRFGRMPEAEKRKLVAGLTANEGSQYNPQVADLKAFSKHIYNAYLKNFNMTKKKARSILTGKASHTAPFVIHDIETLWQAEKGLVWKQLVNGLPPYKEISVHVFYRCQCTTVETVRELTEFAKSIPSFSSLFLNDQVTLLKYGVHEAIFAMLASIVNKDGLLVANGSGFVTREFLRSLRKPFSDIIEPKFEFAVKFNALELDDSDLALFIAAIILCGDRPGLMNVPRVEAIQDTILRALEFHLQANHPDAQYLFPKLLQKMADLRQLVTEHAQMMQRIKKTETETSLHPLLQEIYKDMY
The experiment in a line: PPARδ agonist effect, coactivator Alpha screen. The format is biochemical. The method, then:
The agonist or antagonist activity of compound 1 on the PPAR receptors was tested by fluorescence techniques. • Material and Methods
The results are expressed as: • percentage of control specific agonist response (measured specific response/control specific agonist response)×100) and • percentage inhibition of the control specific agonist response (100−((measured specific response)/control specific agonist response)×100)) obtained in the presence of compound 1.
The EC50 values (concentration at which the maximum specific response is 50%) and the IC50 values (concentration at which the maximum control specific agonist response is inhibited by 50%) are determined by non-linear regression analysis of the concentration-response curves with a mean replicated value using adjustment of Hill's equation

For another assay, the target named is T2, PPARα (h) (Homo sapiens, UniProt Q07869).
T2 sequence (Q07869 1-468): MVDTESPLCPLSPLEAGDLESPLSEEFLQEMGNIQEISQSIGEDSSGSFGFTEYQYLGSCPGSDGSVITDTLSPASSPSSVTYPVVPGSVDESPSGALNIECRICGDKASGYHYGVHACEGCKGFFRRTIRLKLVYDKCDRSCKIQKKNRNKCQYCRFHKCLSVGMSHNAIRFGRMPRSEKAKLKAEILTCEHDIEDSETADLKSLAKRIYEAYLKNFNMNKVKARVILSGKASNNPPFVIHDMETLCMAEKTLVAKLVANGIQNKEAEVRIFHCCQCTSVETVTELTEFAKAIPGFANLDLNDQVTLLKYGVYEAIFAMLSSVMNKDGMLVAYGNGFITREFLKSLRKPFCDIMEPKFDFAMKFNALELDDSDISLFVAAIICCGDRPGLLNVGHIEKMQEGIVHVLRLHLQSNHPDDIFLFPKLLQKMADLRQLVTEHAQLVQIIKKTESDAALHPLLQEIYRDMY
The experiment in a line: PPARα competitive radioligand binding assay (Cerep). The method, then: The affinity of compound 1 for the PPAR receptors (α and γ) was tested by in vitro binding assays (tests carried out by the company Cerep).
This is a nuclear receptor competitive binding assay, between a radiolabelled ligand and the test molecule (here compound 1).
The principle of the technique consists of measuring the displacement of the radioactive ligand bound to the receptor by the test molecule. • Material and Methods
The specific binding of the ligand is defined by the difference between total binding and non-specific binding determined in the presence of an excess of unlabelled ligand.
The results are expressed as: • percentage of control specific binding ((measured specific binding/control specific binding)×100)) • percentage of inhibition of control specific binding ((100−(measured specific binding/control specific binding)) obtained in the presence of compound 1.
The values of IC50 (concentration at which the maximum control specific binding is inhibited by 50%), and the Hill coefficient (nH) are determined by non-linear regression analysis of the curves of competition with a mean replicated value using adjustment of Hill's equation
The inhibition constant (Ki) was calculated using the Cheng-Prusoff equation

As usually defined, the inhibition is the relative decrease from the control value, in per cent.

On to `Oc1ccccc1CCOc1ccc(F)cc1` [Compound 1, 2-[2-(4-fluoro-phenoxy)-ethyl]-phenol], for which the “Collagen VII along the dermal-epidermal junction” value with collagen VII is on record as “moderate overexpression”. The “Collagen I in the papillary dermis” value in the assay with collagen I is given as “clear overexpression”. Also, the “% Control agonist response” value on PPARδ (h) (10^−5 M) was 2%; on PPARδ (h) (10^−6 M), 4%; at PPARδ (h) (10^−7 M) it was 2%. For the same compound, the “PPARδ agonist activity (conclusion in words)” value at PPARδ (h) (10^−7 to 10^−5 M) is on record as “not an agonist”. Besides, the inhibition at 10 µM at PPARα (h) (10^−5 M, agonist radioligand, read-out: % Inhibition of control specific binding) was determined as 0%. The inhibition at 1 µM at PPARα (h) (10^−6 M, agonist radioligand, read-out: % Inhibition of control specific binding) was -2%. Further, the inhibition at 0.1 µM on PPARα (h) (10^−7 M, agonist radioligand, read-out: % Inhibition of control specific binding) was -5%. At PPARα (h) (10^−7 to 10^−5 M), the “Activity with respect to the PPARα receptor (binding, conclusion in words)” value is given as “no activity”.
